Assay results reported in publication PMC12948223, “HSP70 Interactome‐Mediated Proteolysis Targeting Chimera (HSP70‐PROTAC) for Ferroptosis‐Driven Cancer Treatment” (Advanced Science, 2025).

Assays:
HT1080 xenograft tumor = HT1080 xenograft tumor mouse model, antitumor efficacy and safety; format: in vivo; conditions: for TGI (tumor growth inhibition): 17 days
Procedure: Motivated by the aforementioned in vitro findings, we subsequently sought to evaluate the in vivo antitumor efficacy of GDAz‐3 using an HT1080 xenograft tumor mouse model. The tumor‐bearing mice were randomly divided into six groups, minimizing weight and tumor size differences among the groups (n = 6 in each group). The treatment group mice were administered once daily by intraperitoneal injection (IP) with GDAz‐3 at a dosage of 30 or 60 mg kg^−1, while the control group animals were treated with the corresponding solvent, ML162, and apoptozole at a dosage of 30 mg kg^−1. Additionally, we set up a drug combination group to confirm the superiority of GDAz‐3. After treatment for 17 days, animals were humanely euthanized and the tumors were excised (Figure 7B). […] The advantage of the safety of GDAz‐3 was also determined by the hematoxylin and eosin (H&E) staining. […] In general, compared with the single inhibitor or their combination, the in vivo antitumor study confirmed the efficacy and safety of GDAz‐3.
The experimental procedures of the animal experiments were permitted by the Hangzhou Institute of Medicine (HIM), Chinese Academy of Sciences (AP2024‐07‐0010). Male BALB/c nude mice (6 weeks old) were housed under pathogen‐free conditions, maintained at a constant room temperature, and fed standard rodent chow and water. An HT1080 fibrosarcoma xenograft model in nude mice was established through subcutaneous transplantation. When the tumors emerged, the mice were randomly divided into six groups with six mice in each group: GDAz‐3‐treated at 30 or 60 mg kg^−1 group and control groups, including the vehicle group, and each of the two inhibitor‐treated groups (ML162 and apoptozole) at 30 mg kg^−1, and their combinations. The mice were intraperitoneally (IP) injected daily according to their body weight. Body weight and tumor size were measured every other day, and the tumor volume and body weight were recorded every other day after drug treatment. After treatment, the animals were euthanized by cervical dislocation, and the tumor bulks were peeled off and weighed. The organ tissues (tumor, heart, liver, spleen, lung, and kidney) were harvested and fixed with 4% paraformaldehyde for hematoxylin‐eosin (H&E) and immunohistochemistry (IHC) staining. In addition, the expression of GPX4 in tumor samples was analyzed in vehicle‐ and GDAz‐3‐treated groups by western blot assay.

GSH = assay: Intracellular GSH in HT1080 cells; format: cell-based, human; conditions: 0.5 and 1 µM, 24 h
Procedure: HT1080 cells were seeded into 10‐cm‐diameter culture dishes at a density of 2 × 10⁶ cells overnight and then exposed to GDAz‐3 (0.1, 0.5, and 1 µM). Followed by 24‐h incubation, the culture medium was discarded, and the cells were digested with trypsin. The cells were collected and washed with PBS, and threefold of protein removal reagent S was added. Two freeze‐thaw cycles were performed using liquid nitrogen and a 37 °C water bath, followed by a 5‐min ice bath. The samples were centrifuged at 10 000 × g for 10 min at 4 °C. The supernatant was collected and measured according to the instructions of the Total Glutathione Assay Kit (Beyotime Biotechnology, S0052) using a kinetic assay method.

GPX4 = target: T1, GPX4 (Homo sapiens, UniProt P36969); assay: Quantitative proteomics of HT1080 cells; format: cell-based; design: determine the changes in the endogenous levels of GPX4 by western blot assay; endogenous in cells; host or cells: HT1080 fibrosarcoma cells, including siRNA-knockdown derivatives; conditions: 2 µM, 18 h
T1 sequence (P36969 1-170 isoform P36969-2): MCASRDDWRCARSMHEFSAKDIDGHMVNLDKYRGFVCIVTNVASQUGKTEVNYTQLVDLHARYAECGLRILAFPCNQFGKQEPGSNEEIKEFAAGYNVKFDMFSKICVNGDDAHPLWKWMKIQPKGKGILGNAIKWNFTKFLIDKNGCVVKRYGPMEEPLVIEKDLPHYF
Procedure: The proteomics data were generated by Shanghai Bioprofile Co., Ltd. After treatment with compound GDAz‐3 (2 µM) or DMSO for 18 h, the samples were collected. LC‐MS/MS analysis was conducted using an Orbitrap Astral zoom mass spectrometer paired with a Vanquish Neo UHPLC system (Thermo Fisher Scientific). Peptides from each sample were loaded into a column (50 cm Low‐Load µPAC Neo HPLC Column, Thermo Scientific) at a flow rate of 2.2 µL min^−1. The reversed‐phase high‐performance liquid chromatography (RP‐HPLC) mobile phases consisted of solvent A (0.1% formic acid in water) and solvent B (0.1% formic acid in 80% acetonitrile). Peptide elution was performed over 4.8 min with a linear gradient of buffer B at a flow rate 1.25 µL min^−1. The linear gradient was programmed as follows: 0–0.1 min, an increase from 4% to 6% solvent B; 0.1–1.1 min, from 6% to 12% buffer B; 1.1–4.3 min, from 12% to 25% buffer B; 4.3–6.1 min, from 25% to 45% buffer B; 6.1–6.5 min, from 45% to 99% buffer B; 6.5–8 min, buffer B maintained at 99%. The eluted peptides were subsequently analyzed on a Orbitrap Astral mass spectrometer. The DIA method consisted of a full scan m/z range of 380–980 at resolution 240 000 with AGC target of 500% and 5 ms injection time. […] Full MS scan spectra were recorded in profile mode, whereas DIA scan spectra were collected in centroid mode.

COc1ccc(-c2nc(-c3cc(C(F)(F)F)cc(C(F)(F)F)c3)n(Cc3ccc(C(=O)NCCOCCOCCOCCn4cc(COc5ccc(N(C(=O)CCl)C(C(=O)NCCc6ccccc6)c6cccs6)cc5Cl)nn4)cc3)c2-c2ccc(OC)cc2)cc1 (stereo not drawn) [GDAz-3, 4-((2-(3,5-bis(trifluoromethyl)phenyl)-4,5-bis(4-methoxyphenyl)-1H-imidazol-1-yl)methyl)-N-(2-(2-(2-(2-(4-((2-chloro-4-(2-chloro-N-(2-oxo-2-(phenethylamino)-1-(thiophen-2-yl)ethyl)acetamido)phenoxy)methyl)-1H-1,2,3-triazol-1-yl)ethoxy)ethoxy)ethoxy)ethyl)benzamide]
TGI (tumor growth inhibition) (HT1080 xenograft tumor; 30 mg/kg IP once daily): 52% | TGI (tumor growth inhibition) (HT1080 xenograft tumor; 60 mg/kg IP once daily): 67% | Body weight of the mice (HT1080 xenograft tumor; 30 or 60 mg/kg IP once daily): did not obviously reduce the body weight | H&E staining of major organs (heart, liver, spleen, lung, kidney) (HT1080 xenograft tumor; GDAz-3-treated group): did not observe significant toxic changes in the major organs | Level of intracellular GSH (GSH): significantly decreased | Proteomics profiling, GPX4 abundance (GPX4): clear degradation of GPX4
